Data: PMC12892976, “Alkylation-based optimization of antifungal FPPS inhibitors yields a potent, broad-spectrum lipophilic zoledronate derivative” (mBio, 2025)
≈ marks a conversion by molar mass, not a printed value. Like-named read-outs stand apart in the source and are kept apart here.

Legend:
Candida glabrata [1] = assay: MIC/MFC broth microdilution (CLSI); details: Nakaseomyces glabratus, CBS138;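 note: broth microdilution following CLSI M27-Ed4, MFC taken as the lowest drug level yielding no growth once MIC wells were subcultured on SDA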
Procedure: (§1) Antifungal susceptibility was determined by broth microdilution according to the CLSI guidelines described in M27-Ed4 ([16]). […] MFC was determined by back-plating drug-treated cultures from MIC broths onto SDA plates. The MFC was defined as the lowest concentration from which no colonies could be cultured.

Cryptococcus neoformans [2] = assay: MIC/MFC broth microdilution (CLSI); details: Cryptococcus neoformans;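 note: susceptibility testing followed the CLSI M27-Ed4 broth microdilution document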
Procedure: as §1

eight fungal species [3] = assay: MIC/MFC summary across the eight fungal species of Table 1; assay type: cell-based
Procedure: The antifungal activity of these compounds was evaluated according to CLSI guidelines ([16]).

Candida glabrata [4] = assay: checkerboard drug interaction (FICI, MICc);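 for all read-outs here: simplified diagonal checkerboard screen pairing antifungals with FPPS inhibitors, FICI calculated under the Loewe additivity model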; assay type: cell-based; details: C. glabrata; for INH FD (MIC-MICc fold decrease): fold decrease of inhibitor MIC
Procedure: (§2) Drug interactions between antifungals and FPPS inhibitors were investigated using a simplified checkerboard diagonal screening method ([45]). […] FICIs were determined according to the Loewe additivity model ([17]).

Saccharomyces cerevisiae [5] = assay: checkerboard drug interaction (FICI, MICc); assay type: cell-based; parameters: INH MICc / INH MICc (ITR:INH) / INH MICc (KET:INH) / INH MICc (FLC:INH): unit not given beside the values;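 note: simplified diagonal checkerboard screen pairing antifungals with FPPS inhibitors, FICI calculated under the Loewe additivity model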
Aspergillus fumigatus [6] = assay: checkerboard drug interaction (FICI, MICc); assay type: cell-based;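 note: simplified diagonal checkerboard screen pairing antifungals with FPPS inhibitors against Aspergillus fumigatus, with FICI calculated under the Loewe additivity model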
Procedure: as §2

eight fungal species [7] = assay: checkerboard interaction with azoles, summary across the eight species; assay type: cell-based; details: geometric mean MIC in combination with azoles
Source text: Synergy between lipophilic FPPS inhibitors and azole antifungals was investigated by determining the fractional inhibitory concentration index (FICI) (Fig. 2; Table S1 Fig. S1) ([17]). […]. Derivatives PLA9 and 11, and PDA9, 11, and 12 antagonized azoles in C. albicans, C. neoformans, and C. deuterogattii, yet were largely synergistic in C. glabrata and S. cerevisiae. […].

Candida albicans [8] = assay: MIC/MFC broth microdilution (CLSI); assay type: cell-based; details: Candida albicans SC5314
Procedure: as §1

Trichophyton rubrum [9] = assay: checkerboard drug interaction (FICI, MICc);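 note: simplified diagonal checkerboard screen pairing azole antifungals with FPPS inhibitors, FICI calculated under the Loewe additivity model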; assay type: cell-based; details: T. rubrum
Procedure: as §2

[10] = test system: Cryptococcus deuterogattii; assay: checkerboard drug interaction (FICI, MICc);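 for all read-outs here: simplified diagonal checkerboard screen pairing antifungal drugs with FPPS inhibitors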; assay type: cell-based; details: C. deuterogattii; for INH FD (MIC-MICc fold decrease): fold decrease of inhibitor MIC
Procedure: as §2

Trichophyton rubrum [11] = assay: MIC/MFC broth microdilution (CLSI); details: Trichophyton rubrum
Procedure: as §1

Cryptococcus neoformans [12] = assay: checkerboard drug interaction (FICI, MICc);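 for all read-outs here: antifungal plus FPPS inhibitor pairs tested against Cryptococcus neoformans by simplified diagonal checkerboard screening, FICI computed under the Loewe additivity model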; assay type: cell-based; details: C. neoformans; for INH FD (MIC-MICc fold decrease): fold decrease of inhibitor MIC
Procedure: as §2

Saccharomyces cerevisiae [13] = assay: MIC/MFC broth microdilution (CLSI); assay type: cell-based; details: Saccharomyces cerevisiae S288c
Procedure: as §1

Aspergillus flavus [14] = assay: checkerboard drug interaction (FICI, MICc);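 note: simplified diagonal checkerboard screen pairing azole antifungals with FPPS inhibitors, FICI calculated under the Loewe additivity model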; assay type: cell-based; parameters: INH MICc (KET:INH) / INH MICc (FLC:INH): unit not given beside the values; details: A. flavus
HEK-293T cells = assay: MTT reduction cytotoxicity assay; assay type: cell-based; details: Homo sapiens, HEK-293T, 72 h, MTT, 72 h
Aspergillus fumigatus [15] = assay: MIC/MFC broth microdilution (CLSI); details: ATCC204305
Procedure: as §1

Candida albicans [16] = assay: checkerboard drug interaction (FICI, MICc);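 for all read-outs here: antifungal plus FPPS inhibitor combinations on Candida albicans tested by a simplified diagonal checkerboard screen, with FICI calculated under the Loewe additivity model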; assay type: cell-based; details: C. albicans; for INH FD (MIC-MICc fold decrease): fold decrease of inhibitor MIC
Procedure: as §2

[17] = test system: Cryptococcus deuterogattii; assay: MIC/MFC broth microdilution (CLSI); details: Cryptococcus deuterogattii;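 note: broth microdilution per CLSI M27-Ed4. MFC is the lowest concentration yielding no colonies when MIC broths are subcultured onto SDA plates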
Procedure: as §1

Aspergillus flavus [18] = assay: MIC/MFC broth microdilution (CLSI); details: ATCC204304
Procedure: as §1

[19] = FLC:INH combination, MIC of the inhibitor in combination with FLC
[20] = FLC:INH combination, fold decrease of FLC MIC
[21] = ITR:INH combination, MIC of the inhibitor in combination with ITR
[22] = ITR:INH combination, fold decrease of ITR MIC
[23] = KET:INH combination, MIC of the inhibitor in combination with KET
[24] = KET:INH combination, fold decrease of KET MIC
[25] = Fractional Inhibitory Concentration Index, fluconazole + inhibitor
[26] = Fractional Inhibitory Concentration Index, itraconazole + inhibitor
[27] = Fractional Inhibitory Concentration Index, ketoconazole + inhibitor
[28] = MIC of the inhibitor in combination with fluconazole
[29] = MIC of the inhibitor in combination with itraconazole
[30] = MIC of the inhibitor in combination with ketoconazole
[31] = MIC-MICc fold decrease of fluconazole, negative = increase
[32] = MIC-MICc fold decrease of itraconazole, negative = increase
[33] = MIC-MICc fold decrease of ketoconazole, negative = increase
[34] = MIC-MICc fold decrease of the inhibitor, with fluconazole
[35] = MIC-MICc fold decrease of the inhibitor, with itraconazole
[36] = MIC-MICc fold decrease of the inhibitor, with ketoconazole

Question: Which results are given for CCCCCCCCCN1CCC[C@H]1C(=O)N[C@H](CC(=O)OC)C(=O)OC [dmPDA9]?
Answer: MFC (Candida glabrata [1]): > 128 µg/mL; MIC (Candida glabrata [1]): 128 µg/mL (≈ 333 µM); MFC (Cryptococcus neoformans [2]): 128 µg/mL (≈ 333 µM); MIC (Cryptococcus neoformans [2]): 32 µg/mL (≈ 83.2 µM); MFC (eight fungal species [3]; across eight species, read-out: Geometric mean MFC): 181 µg/mL (≈ 471 µM); MIC (eight fungal species [3]; geometric mean across eight species, read-out: GM fungal MIC): 83 µg/mL (≈ 216 µM); MIC (eight fungal species [3]; read-out: Geometric mean MIC): 83 µg/mL (≈ 216 µM); FICI (Candida glabrata [4]; FLC:INH combination): 2.5; INH MICc (Candida glabrata [4]; [19]): 32; FLC FD (MIC-MICc fold decrease) (Candida glabrata [4]; [20]): -2; INH FD (MIC-MICc fold decrease) (Candida glabrata [4]; FLC:INH combination): 4; FICI (Candida glabrata [4]; ITR:INH combination): 1.13; INH MICc (Candida glabrata [4]; [21]): 8; ITR FD (MIC-MICc fold decrease) (Candida glabrata [4]; [22]): 1; INH FD (MIC-MICc fold decrease) (Candida glabrata [4]; ITR:INH combination): 16; FICI (Candida glabrata [4]; KET:INH combination): 1.13; INH MICc (Candida glabrata [4]; [23]): 8; KET FD (MIC-MICc fold decrease) (Candida glabrata [4]; [24]): 1; INH FD (MIC-MICc fold decrease) (Candida glabrata [4]; KET:INH combination): 16; FICI (FLC:INH) (Saccharomyces cerevisiae [5]; [25]): 1.5; FICI (ITR:INH) (Saccharomyces cerevisiae [5]; [26]): 3; FICI (KET:INH) (Saccharomyces cerevisiae [5]; [27]): 2.5; INH MICc (FLC:INH) (Saccharomyces cerevisiae [5]; [28]): 64; INH MICc (ITR:INH) (Saccharomyces cerevisiae [5]; [29]): 64; INH MICc (KET:INH) (Saccharomyces cerevisiae [5]; [30]): 128; FLC FD (FLC:INH) (Saccharomyces cerevisiae [5]; [31]): 2; ITR FD (ITR:INH) (Saccharomyces cerevisiae [5]; [32]): -2; KET FD (KET:INH) (Saccharomyces cerevisiae [5]; [33]): 2; INH FD (FLC:INH) (Saccharomyces cerevisiae [5]; [34]): 1; INH FD (ITR:INH) (Saccharomyces cerevisiae [5]; [35]): 1; INH FD (KET:INH) (Saccharomyces cerevisiae [5]; [36]): -2; FICI (FLC:INH) (Aspergillus fumigatus [6]; [25]): 1.5; FICI (ITR:INH) (Aspergillus fumigatus [6]; [26]): 0.52; FICI (KET:INH) (Aspergillus fumigatus [6]; [27]): 2; INH MICc (FLC:INH) (Aspergillus fumigatus [6]; [28]): 128; INH MICc (ITR:INH) (Aspergillus fumigatus [6]; [29]): 2; INH MICc (KET:INH) (Aspergillus fumigatus [6]; [30]): 128; FLC FD (FLC:INH) (Aspergillus fumigatus [6]; [31]): 2; ITR FD (ITR:INH) (Aspergillus fumigatus [6]; [32]): 2; KET FD (KET:INH) (Aspergillus fumigatus [6]; [33]): 1; INH FD (FLC:INH) (Aspergillus fumigatus [6]; [34]): 1; INH FD (ITR:INH) (Aspergillus fumigatus [6]; [35]): 64; INH FD (KET:INH) (Aspergillus fumigatus [6]; [36]): 1; GM fungal MICc (eight fungal species [7]): 55.4; MFC (Candida albicans [8]): > 128 µg/mL; MIC (Candida albicans [8]): 128 µg/mL (≈ 333 µM); FICI (FLC:INH) (Trichophyton rubrum [9]; [25]): 1.25; FICI (ITR:INH) (Trichophyton rubrum [9]; [26]): 1.13; FICI (KET:INH) (Trichophyton rubrum [9]; [27]): 1.25; INH MICc (FLC:INH) (Trichophyton rubrum [9]; [28]): 32; INH MICc (ITR:INH) (Trichophyton rubrum [9]; [29]): 32; INH MICc (KET:INH) (Trichophyton rubrum [9]; [30]): 32; FLC FD (FLC:INH) (Trichophyton rubrum [9]; [31]): 4; ITR FD (ITR:INH) (Trichophyton rubrum [9]; [32]): 8; KET FD (KET:INH) (Trichophyton rubrum [9]; [33]): 4; INH FD (FLC:INH) (Trichophyton rubrum [9]; [34]): 1; INH FD (ITR:INH) (Trichophyton rubrum [9]; [35]): 1; INH FD (KET:INH) (Trichophyton rubrum [9]; [36]): 1; FICI ([10]; FLC:INH combination): 3; INH MICc [10, 19]: 128; FLC FD (MIC-MICc fold decrease) [10, 20]: -2; INH FD (MIC-MICc fold decrease) ([10]; FLC:INH combination): 1; FICI ([10]; ITR:INH combination): 1.25; INH MICc [10, 21]: 32; ITR FD (MIC-MICc fold decrease) [10, 22]: 1; INH FD (MIC-MICc fold decrease) ([10]; ITR:INH combination): 4; FICI ([10]; KET:INH combination): 1.5; INH MICc [10, 23]: 128; KET FD (MIC-MICc fold decrease) [10, 24]: 2; INH FD (MIC-MICc fold decrease) ([10]; KET:INH combination): 1; MFC (Trichophyton rubrum [11]): > 128 µg/mL; MIC (Trichophyton rubrum [11]): 32 µg/mL (≈ 83.2 µM); FICI (Cryptococcus neoformans [12]; FLC:INH combination): 1.25; INH MICc (Cryptococcus neoformans [12]; [19]): 32; FLC FD (MIC-MICc fold decrease) (Cryptococcus neoformans [12]; [20]): 1; INH FD (MIC-MICc fold decrease) (Cryptococcus neoformans [12]; FLC:INH combination): 4; FICI (Cryptococcus neoformans [12]; ITR:INH combination): ≥4; INH MICc (Cryptococcus neoformans [12]; [21]): 128; ITR FD (MIC-MICc fold decrease) (Cryptococcus neoformans [12]; [22]): -4; INH FD (MIC-MICc fold decrease) (Cryptococcus neoformans [12]; ITR:INH combination): 1; FICI (Cryptococcus neoformans [12]; KET:INH combination): ≥4; INH MICc (Cryptococcus neoformans [12]; [23]): 128; KET FD (MIC-MICc fold decrease) (Cryptococcus neoformans [12]; [24]): -4; INH FD (MIC-MICc fold decrease) (Cryptococcus neoformans [12]; KET:INH combination): 1; MFC (Saccharomyces cerevisiae [13]): 128 µg/mL (≈ 333 µM); MIC (Saccharomyces cerevisiae [13]): 64 µg/mL (≈ 166 µM); FICI (FLC:INH) (Aspergillus flavus [14]; [25]): 2; FICI (ITR:INH) (Aspergillus flavus [14]; [26]): 2; FICI (KET:INH) (Aspergillus flavus [14]; [27]): 1; INH MICc (FLC:INH) (Aspergillus flavus [14]; [28]): 256; INH MICc (ITR:INH) (Aspergillus flavus [14]; [29]): 256; INH MICc (KET:INH) (Aspergillus flavus [14]; [30]): 128; FLC FD (FLC:INH) (Aspergillus flavus [14]; [31]): 1; ITR FD (ITR:INH) (Aspergillus flavus [14]; [32]): 1; KET FD (KET:INH) (Aspergillus flavus [14]; [33]): 2; INH FD (FLC:INH) (Aspergillus flavus [14]; [34]): 1; INH FD (ITR:INH) (Aspergillus flavus [14]; [35]): 1; INH FD (KET:INH) (Aspergillus flavus [14]; [36]): 2; IC50 (HEK-293T cells; HEK-293T cells, read-out: IC50): 10.4 µg/mL (≈ 27.2 µM); IC50 (HEK-293T cells; read-out: HEK IC50): 10.4 µg/mL (≈ 27.2 µM); MFC (Aspergillus fumigatus [15]): > 128 µg/mL; MIC (Aspergillus fumigatus [15]): 128 µg/mL (≈ 333 µM); FICI (Candida albicans [16]; FLC:INH combination): ≥4; INH MICc (Candida albicans [16]; [19]): 64; FLC FD (MIC-MICc fold decrease) (Candida albicans [16]; [20]): < -4; INH FD (MIC-MICc fold decrease) (Candida albicans [16]; FLC:INH combination): 2; FICI (Candida albicans [16]; ITR:INH combination): ≥4; INH MICc (Candida albicans [16]; [21]): 64; ITR FD (MIC-MICc fold decrease) (Candida albicans [16]; [22]): < -4; INH FD (MIC-MICc fold decrease) (Candida albicans [16]; ITR:INH combination): 2; FICI (Candida albicans [16]; KET:INH combination): ≥4; INH MICc (Candida albicans [16]; [23]): 64; KET FD (MIC-MICc fold decrease) (Candida albicans [16]; [24]): < -4; INH FD (MIC-MICc fold decrease) (Candida albicans [16]; KET:INH combination): 2; MFC [17]: 64 µg/mL (≈ 166 µM); MIC [17]: 64 µg/mL (≈ 166 µM); MFC (Aspergillus flavus [18]): > 128 µg/mL; MIC (Aspergillus flavus [18]): > 128 µg/mL
